From ChEMBL document CHEMBL3860050, “Triterpenoids from Momordica balsamina: Reversal of ABCB1-mediated multidrug resistance” (Bioorg Med Chem, 2016)

Key:
[1] = target: T1, ATP-dependent translocase ABCB1 (Homo sapiens, UniProt P08183); assay: Inhibition of MDR1-mediated efflux-pump activity in mouse L5178Y cells expressing human MDR1 assessed as forward scattered light at 20 uM preincubated for 10 mins followed by rhodamine-123 addition measured after 20 mins by flow cytometry (reference value: 455.7 to 509.9); assay type: cell-based
[2] = target: T1, ATP-dependent translocase ABCB1; assay: Inhibition of MDR1-mediated efflux-pump activity in mouse L5178Y cells expressing human MDR1 assessed as forward scattered light at 2 uM preincubated for 10 mins followed by rhodamine-123 addition measured after 20 mins by flow cytometry (reference value: 455.7 to 509.9); assay type: cell-based
[3] = Antiproliferative activity against mouse L5178Y cells expressing human MDR1 measured after 72 hrs by MTT assay; assay type: functional, cell-based
[4] = Antiproliferative activity against mouse L5178Y cells measured after 72 hrs by MTT assay; assay type: functional, cell-based
[5] = target: T1, ATP-dependent translocase ABCB1; assay: Inhibition of MDR1-mediated efflux-pump activity in mouse L5178Y cells expressing human MDR1 assessed as side scattered light at 2 uM preincubated for 10 mins followed by rhodamine-123 addition measured after 20 mins by flow cytometry (reference value: 194.6 to 286.4); assay type: cell-based
[6] = target: T1, ATP-dependent translocase ABCB1; assay: Inhibition of MDR1-mediated efflux-pump activity in mouse L5178Y cells expressing human MDR1 assessed as side scattered light at 20 uM preincubated for 10 mins followed by rhodamine-123 addition measured after 20 mins by flow cytometry (reference value: 194.6 to 286.4); assay type: cell-based
[7] = target: T1, ATP-dependent translocase ABCB1; assay: Inhibition of MDR1-mediated efflux-pump activity in mouse L5178Y cells expressing human MDR1 assessed as mean fluorescence intensity at 2 uM preincubated for 10 mins followed by rhodamine-123 addition measured after 20 mins by flow cytometry (reference value: 7.1 to 18.6); assay type: cell-based
[8] = target: T1, ATP-dependent translocase ABCB1; assay: Inhibition of MDR1-mediated efflux-pump activity in mouse L5178Y cells expressing human MDR1 assessed as mean fluorescence intensity at 20 uM preincubated for 10 mins followed by rhodamine-123 addition measured after 20 mins by flow cytometry (reference value: 7.1 to 18.6); assay type: cell-based
[9] = target: T1, ATP-dependent translocase ABCB1; assay: Inhibition of MDR1-mediated efflux-pump activity in mouse L5178Y cells expressing human MDR1 assessed as fluorescence activity ratio at 2 uM preincubated for 10 mins followed by rhodamine-123 addition measured after 20 mins by flow cytometry; assay type: cell-based
[10] = target: T1, ATP-dependent translocase ABCB1; assay: Inhibition of MDR1-mediated efflux-pump activity in mouse L5178Y cells expressing human MDR1 assessed as fluorescence activity ratio at 20 uM preincubated for 10 mins followed by rhodamine-123 addition measured after 20 mins by flow cytometry; assay type: cell-based
[11] = target: T1, ATP-dependent translocase ABCB1; assay: Inhibition of MDR1 in mouse L5178Y cells expressing human MDR1 assessed as doxorubicin-induced antiproliferative activity by measuring combination index at 5.7:1 compound to doxorubicin ratio measured after 48 hrs by MTT assay; assay type: cell-based
[12] = target: T1, ATP-dependent translocase ABCB1; assay: Inhibition of MDR1 in mouse L5178Y cells expressing human MDR1 assessed as doxorubicin-induced antiproliferative activity by measuring combination index at 1.4:1 compound to doxorubicin ratio measured after 48 hrs by MTT assay; assay type: cell-based
[13] = target: T1, ATP-dependent translocase ABCB1; assay: Inhibition of MDR1 in mouse L5178Y cells expressing human MDR1 assessed as doxorubicin-induced antiproliferative activity by measuring combination index at 11.3:1 compound to doxorubicin ratio measured after 48 hrs by MTT assay; assay type: cell-based

T1 sequence (P08183 whole entry): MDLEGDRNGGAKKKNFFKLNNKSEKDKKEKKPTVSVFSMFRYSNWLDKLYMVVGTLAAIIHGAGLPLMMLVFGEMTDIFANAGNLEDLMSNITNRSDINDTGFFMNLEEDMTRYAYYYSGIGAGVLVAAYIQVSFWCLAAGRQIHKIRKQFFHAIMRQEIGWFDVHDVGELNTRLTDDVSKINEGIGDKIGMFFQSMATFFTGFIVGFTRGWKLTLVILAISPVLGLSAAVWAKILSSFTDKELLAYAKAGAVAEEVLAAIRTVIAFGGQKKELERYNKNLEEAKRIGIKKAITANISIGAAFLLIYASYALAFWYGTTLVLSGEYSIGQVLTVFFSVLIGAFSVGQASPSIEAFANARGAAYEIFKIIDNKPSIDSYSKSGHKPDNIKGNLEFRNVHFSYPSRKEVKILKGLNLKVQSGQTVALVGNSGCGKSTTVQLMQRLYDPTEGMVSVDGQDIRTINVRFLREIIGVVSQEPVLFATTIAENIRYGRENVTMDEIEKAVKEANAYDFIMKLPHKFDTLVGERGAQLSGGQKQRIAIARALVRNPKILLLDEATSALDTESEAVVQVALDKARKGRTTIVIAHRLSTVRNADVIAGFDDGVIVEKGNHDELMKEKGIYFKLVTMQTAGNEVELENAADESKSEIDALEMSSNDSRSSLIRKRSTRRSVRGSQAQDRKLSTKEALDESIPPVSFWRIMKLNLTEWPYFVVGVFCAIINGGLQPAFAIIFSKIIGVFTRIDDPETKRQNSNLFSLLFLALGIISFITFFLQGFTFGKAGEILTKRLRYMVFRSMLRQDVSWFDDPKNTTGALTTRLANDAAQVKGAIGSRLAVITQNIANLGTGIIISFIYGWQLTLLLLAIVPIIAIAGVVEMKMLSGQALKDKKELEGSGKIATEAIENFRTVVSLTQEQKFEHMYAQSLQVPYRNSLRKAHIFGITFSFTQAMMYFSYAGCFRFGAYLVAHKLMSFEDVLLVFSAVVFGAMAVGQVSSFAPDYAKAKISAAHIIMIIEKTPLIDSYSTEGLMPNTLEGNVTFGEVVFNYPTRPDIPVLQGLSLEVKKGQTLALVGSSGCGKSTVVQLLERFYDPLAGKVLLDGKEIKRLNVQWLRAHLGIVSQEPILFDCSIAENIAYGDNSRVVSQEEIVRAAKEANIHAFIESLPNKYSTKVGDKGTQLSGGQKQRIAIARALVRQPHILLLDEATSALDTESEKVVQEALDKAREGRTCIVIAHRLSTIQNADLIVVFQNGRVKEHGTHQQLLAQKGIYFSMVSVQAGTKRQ

Compound	Activity [1]	Activity [2]	IC50 [3]	IC50 [4]	Activity [5]	Activity [6]	Flu intensity [7]	Flu intensity [8]	Ratio [9]	Ratio [10]	CI [11]	CI [12]	CI [13]
CO[C@H]1C=C2[C@@H](CC[C@H](O)C2(C)C)[C@]2(C)C[C@@H](O)[C@]3(C)[C@@H]([C@H](C)C[C@@H](O)C=C(C)C)CC[C@@]3(C)[C@H]12 [CUCURBALSAMINOL C]	564.3	568.5	34.6 µM	19.5 µM	241.8	237.6	31.6	202.8	3.1	19.8	0.416	–	–
CO[C@H]1C=C2[C@@H](CC[C@H](O)C2(C)C)[C@]2(C)CC[C@]3(C)[C@@H]([C@H](C)C[C@H](C=C(C)C)O[C@@H]4O[C@H](CO)[C@@H](O)[C@H](O)[C@H]4O)CC[C@@]3(C)[C@H]12	457.3	446.8	32.8 µM	3.5 µM	266.8	269.2	12.4	643.1	1	49.1	0.956	–	–
C[C@H](C/C=C/C(C)(C)O)[C@H]1CC[C@@]2(C)[C@@H]3[C@@H](O)C=C4[C@@H](CC[C@H](O)C4(C)C)[C@]3(C)CC[C@]12C	395.2	570.5	27.4 µM	18.7 µM	249	243.9	73.1	368.4	7.1	36	0.71	–	–
CO[C@H]1C=C2[C@@H](CC[C@H](O)[C@]2(C)CO)[C@]2(C)CC[C@]3(C)[C@@H]([C@H](C)C[C@@H](O)C=C(C)C)CC[C@@]3(C)[C@H]12 [BALSAMINOL B]	461.8	439.5	31 µM	7.7 µM	258.8	260.7	95.7	899.1	7.3	68.7	–	0.378	–
CC(C)=C[C@H](O)C[C@@H](C)[C@H]1CC[C@@]2(C)[C@@H]3C=C[C@@]45OC[C@]3(CC[C@]12C)[C@@H]4CC[C@H](O)C5(C)C [KARAVILAGENIN E]	474	568.8	45.2 µM	21.3 µM	234.2	242	38.4	743.8	3.8	72.6	0.437	–	–
CC(C)=C[C@H](O)C[C@@H](C)[C@H]1CC[C@@]2(C)[C@@H]3[C@@H](O)C=C4[C@@H](CC[C@H](O)[C@]4(C)CO)[C@]3(C)CC[C@]12C [BALSAMINOL A]	454.5	432.9	12.6 µM	7.2 µM	259	260	20.1	766.1	1.5	47.6	–	–	0.503
CO[C@H]1C=C2[C@@H](CC[C@H](O)C2(C)C)[C@]2(C)C[C@@H](O)[C@]3(C)[C@@H]([C@H](C)C/C=C/C(C)(C)O)CC[C@@]3(C)[C@H]12	585	568.6	46.3 µM	44.4 µM	249.6	235.8	27.2	391.6	2.7	38.2	–	0.393	–
CC(C)=C[C@H](O)C[C@@H](C)[C@H]1CC[C@@]2(C)[C@@H]3C(=O)C=C4[C@@H](CC[C@H](O)C4(C)C)[C@]3(C)CC[C@]12C [BALSAMINOL E]	593	582.7	55.2 µM	41.3 µM	243.4	234.5	20.8	663.1	2	64.8	0.721	–	–
CC(C)=CC(=O)C[C@@H](C)[C@H]1CC[C@@]2(C)[C@@H]3C(=O)C=C4[C@@H](CC[C@H](O)[C@]4(C)CO)[C@]3(C)CC[C@]12C [BALSAMINOL C]	502.2	502.3	42.6 µM	19 µM	205.4	195.7	22.3	1537.8	2.9	198.9	0.268	–	–
CC(C)=C[C@H](O)C[C@@H](C)[C@H]1CC[C@@]2(C)[C@@H]3[C@@H](O[C@H]4O[C@@H](CO)[C@H](O)[C@H](O)[C@@H]4O)C=C4[C@@H](CC[C@H](O)C4(C)C)[C@]3(C)CC[C@]12C	457.9	443.8	42.6 µM	18.7 µM	267.4	277.2	11.5	487.1	0.9	37.2	–	–	–
CO[C@H]1C=C2[C@@H](CC[C@H](OC(=O)c3ccc(Cl)cc3)C2(C)C)[C@]2(C)CC[C@]3(C)[C@@H]([C@H](C)C[C@H](C=C(C)C)OC(=O)c4ccc(Cl)cc4)CC[C@@]3(C)[C@H]12 [KARAVOATE L]	512.2	504.6	> 133 µM	> 133 µM	206.4	202.4	8.1	9	1	1.2	–	–	–
COc1ccc(C(=O)O[C@@H](C=C(C)C)C[C@@H](C)[C@H]2CC[C@@]3(C)[C@@H]4[C@@H](OC)C=C5[C@@H](CC[C@H](O)C5(C)C)[C@]4(C)CC[C@]23C)cc1 [KARAVOATE M]	531.9	526	87.5 µM	59.4 µM	192.3	181.8	12.3	11.4	1.8	1.7	–	–	–
CO[C@H]1C=C2[C@@H](CC[C@H](OC(=O)c3ccccc3)C2(C)C)[C@]2(C)CC[C@]3(C)[C@@H]([C@H](C)C[C@H](C=C(C)C)OC(=O)c4ccccc4)CC[C@@]3(C)[C@H]12 [KARAVOATE H]	519.8	504.9	96.4 µM	> 133 µM	200.4	215.4	9	10.4	1.2	1.3	–	–	–
